Experimental data from the NIST ThermoML archive (doi:10.1021/je200508x).

Settings: 101.33 kPa, Crystal, Vacuum adiabatic calorimetry

C=C(C)C(=O)[O][Sb]([O]C(=O)C(=C)C)([c]1ccccc1)([c]1ccccc1)[c]1ccccc1 [triphenyl-.lambda.5-stibanediyl bis(2-methylacrylate)]
Settings	molar entropy [J/K/mol]
5 K	0.671
10 K	4.78
15 K	12.1
20 K	21.52
25 K	32.28
30 K	44.02
35 K	56.34
40 K	69.14
45 K	82.14
50 K	95.25
60 K	121.6
70 K	147.7
80 K	173.5
90 K	198.9
100 K	223.7
110 K	247.9
120 K	271.6
130 K	294.8
140 K	317.4
150 K	339.7
160 K	362.6
170 K	384.6
180 K	405.6
190 K	426.3
200 K	446.6
210 K	466.8
220 K	486.7
230 K	506.4
240 K	526
250 K	545.3
260 K	564.5
270 K	583.5
280 K	602.3
290 K	621.1
298.15 K	636.3
300 K	639.7
310 K	658.3
320 K	676.9
330 K	695
340 K	714
350 K	732
360 K	750
370 K	768
380 K	786
390 K	804
400 K	821
